Bridge positions count the residues as written; N and C are the ends. Square brackets hold non-standard residues; d marks the D form. Peptide text beside a SMILES is read from it. Pro(4R-NH2) = N[C@H]1CN[C@H](C(=O)O)C1; Gly(N-2-aminoethyl) = NCCNCC(=O)O; Cha = N[C@@H](CC1CCCCC1)C(=O)O; Gly(N(CH2)3NH2) = NCCCNCC(=O)O; Pen = CC(C)(S)[C@H](N)C(=O)O; dDab = NCC[C@@H](N)C(=O)O; Dab = NCC[C@H](N)C(=O)O
Tests used:
[1] = test system: human red blood cells (hRBC); assay: Hemolysis of human red blood cells; type: cell-based; conditions: red cells of human, 1 h
Summary of the method: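 Percent hemolysis is OD540 of peptide-treated supernatant relative to water-lysed cells. Each peptide was tested at 200 μg/mL against 20% (v/v) washed human erythrocytes. Incubation was 1 h at 37 °C, 300 rpm.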

[2] = test system: Escherichia coli MCR-1 Af 45; conditions: MCR-1 Af 45
Summary of the method: (§1)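 First, bacterial colonies are suspended in saline and adjusted to 0.5 McFarland. Next, the suspension is diluted into cation-adjusted Mueller-Hinton II broth (approx. 5×10^5 CFU/mL). Finally, it is added to two-fold serially diluted peptide, with polysorbate 80 at 0.002% final.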

[3] = test system: Escherichia coli ATCC 25922; conditions: ATCC 25922
Summary of the method: as §1

[4] = test system: Klebsiella pneumoniae SSI3010; conditions: SSI3010
Summary of the method: as §1

Structure (SMILES)	Escherichia coli MCR-1 Af 45 MIC [2]	Escherichia coli ATCC 25922 MIC [3]	Klebsiella pneumoniae SSI3010 MIC [4]	Hemolysis at 0.2 g/L [1]
CC[C@H](C)[C@H](NC(=O)[C@@H](NC(=O)[C@@H]1C[C@@H](N)CN1C(=O)[C@@H](NC(=O)[C@@H]1C[C@@H](N)CN1)C(C)C)[C@@H](C)CC)C(=O)N[C@@H](Cc1ccc(O)cc1)C(=O)N[C@@H]1C(=O)N[C@@H](CC(N)=O)C(=O)N[C@@H](CCCNC(=N)N)C(=O)N[C@@H](CCN)C(=O)N[C@@H]([C@@H](C)O)C(=O)N[C@H](CCN)C(=O)N[C@@H](CCCCN)C(=O)N[C@H](C(=O)N[C@@H](CCC(N)=O)C(=O)N[C@@H](CCCNC(=N)N)C(=O)N[C@@H](Cc2ccc(O)cc2)C(=O)O)CSSC1(C)C [Example 23, Pro((4R)NH2)-Val-Pro((4R)NH2)-Ile-Ile-Tyr-Pen-Asn-Arg-Dab-Thr-^DDab-Lys-Cys-Gln-Arg-Tyr] (H-[Pro(4R-NH2)]V[Pro(4R-NH2)]IIY[Pen]NR[Dab]T[dDab]KCQRY-OH; disulfide 7-14)	0.25 µg/mL	0.25 µg/mL	0.25 µg/mL	0%
CC[C@H](C)[C@H](NC(=O)[C@@H](NC(=O)[C@@H]1CCCN1C(=O)[C@@H](NC(=O)[C@@H]1C[C@@H](N)CN1)C(C)C)[C@@H](C)CC)C(=O)N[C@@H](Cc1ccc(O)cc1)C(=O)N[C@@H]1C(=O)N[C@@H](CC(N)=O)C(=O)N[C@@H](CCCNC(=N)N)C(=O)N[C@@H](CCN)C(=O)N[C@@H]([C@@H](C)O)C(=O)N[C@H](CCN)C(=O)N[C@@H](CCCCN)C(=O)N[C@H](C(=O)N[C@@H](CCN)C(=O)N[C@@H](CCCNC(=N)N)C(=O)N[C@@H](Cc2ccc(O)cc2)C(=O)O)CSSC1(C)C [Example 24, Pro(4R)NH2)-Val-Pro-Ile-Ile-Tyr-Pen-Asn-Arg-Dab-Thr-^DDab-Lys-Cys-Dab-Arg-Tyr] (HELM PEPTIDE1{[N[C@H]1CN[C@H](C(=O)[*:2])C1].V.P.I.I.Y.[Pen].N.R.[Dab].T.[NCC[C@@H](N[*:1])C(=O)[*:2]].K.C.[Dab].R.Y}$PEPTIDE1,PEPTIDE1,7:R3-14:R3$$$V2.0)	0.125 µg/mL	0.125 µg/mL	0.25 µg/mL	0%
CC[C@H](C)[C@H](NC(=O)[C@@H](NC(=O)[C@@H]1C[C@@H](N)CN1C(=O)[C@@H](NC(=O)[C@@H]1CCCN1)C(C)C)[C@@H](C)CC)C(=O)N[C@@H](Cc1ccc(O)cc1)C(=O)N[C@@H]1C(=O)N[C@@H](CC(N)=O)C(=O)N[C@@H](CCCNC(=N)N)C(=O)N[C@@H](CCN)C(=O)N[C@@H]([C@@H](C)O)C(=O)N[C@H](CCN)C(=O)N[C@@H](CCCCN)C(=O)N[C@H](C(=O)N[C@@H](CCN)C(=O)N[C@@H](CCCNC(=N)N)C(=O)N[C@@H](Cc2ccc(O)cc2)C(=O)O)CSSC1(C)C [Example 25, Pro-Val-Pro((4R)NH2)-Ile-Ile-Tyr-Pen-Asn-Arg-Dab-Thr-^DDab-Lys-Cys-Dab-Arg-Tyr] (HELM PEPTIDE1{P.V.[N[C@@H]1C[C@@H](C(=O)[*:2])N([*:1])C1].I.I.Y.[Pen].N.R.[Dab].T.[NCC[C@@H](N[*:1])C(=O)[*:2]].K.C.[Dab].R.Y}$PEPTIDE1,PEPTIDE1,7:R3-14:R3$$$V2.0)	≤0.03125 µg/mL	≤0.03125 µg/mL	0.0625 µg/mL	0%
CC[C@H](C)[C@H](NC(=O)[C@@H](NC(=O)[C@@H]1C[C@@H](N)CN1C(=O)[C@@H](NC(=O)[C@@H]1C[C@@H](N)CN1)C(C)C)[C@@H](C)CC)C(=O)N[C@@H](Cc1ccc(O)cc1)C(=O)N[C@@H]1C(=O)N[C@@H](CC(N)=O)C(=O)N[C@@H](CCCNC(=N)N)C(=O)N[C@@H](CCN)C(=O)N[C@@H]([C@@H](C)O)C(=O)N[C@H](CCN)C(=O)N[C@@H](CCCCN)C(=O)N[C@H](C(=O)N[C@@H](CCN)C(=O)N[C@@H](CCCNC(=N)N)C(=O)N[C@@H](Cc2ccc(O)cc2)C(=O)O)CSSC1(C)C [Example 26, Pro((4R)NH2)-Val-Pro((4R)NH2)-Ile-Ile-Tyr-Pen-Asn-Arg-Dab-Thr-^DDab-Lys-Cys-Dab-Arg-Tyr] (H-[Pro(4R-NH2)]V[Pro(4R-NH2)]IIY[Pen]NR[Dab]T[dDab]KC[Dab]RY-OH; disulfide 7-14)	0.125 µg/mL	0.25 µg/mL	0.25 µg/mL	0%
CC[C@H](C)[C@H](NC(=O)[C@@H](NC(=O)[C@@H]1CCCN1C(=O)[C@@H](NC(=O)CNC)C(C)C)[C@@H](C)CC)C(=O)N[C@@H](Cc1ccc(O)cc1)C(=O)N[C@H]1CSSC[C@@H](C(=O)N[C@@H](CCN)C(=O)N[C@@H](CCCNC(=N)N)C(=O)N[C@@H](Cc2ccc(O)cc2)C(=O)O)NC(=O)[C@H](CCCCN)NC(=O)[C@@H](CCN)NC(=O)[C@H]([C@@H](C)O)NC(=O)[C@H](CCN)NC(=O)[C@H](CCCNC(=N)N)NC(=O)[C@H](CC(N)=O)NC1=O [Example 30] (HELM PEPTIDE1{[Sar].V.P.I.I.Y.C.N.R.[Dab].T.[NCC[C@@H](N[*:1])C(=O)[*:2]].K.C.[Dab].R.Y}$PEPTIDE1,PEPTIDE1,7:R3-14:R3$$$V2.0)	0.125 µg/mL	0.125 µg/mL	0.25 µg/mL	0%

Now from value to compound, other results behind:

Escherichia coli MCR-1 Af 45 MIC [2]	Escherichia coli ATCC 25922 MIC [3]	Klebsiella pneumoniae SSI3010 MIC [4]	Structure (SMILES)	Hemolysis at 0.2 g/L [1]
≤0.03125 µg/mL	0.0625 µg/mL	0.0625 µg/mL	CC[C@H](C)[C@H](NC(=O)CN(CCCN)C(=O)[C@@H](NC(=O)CNCCCN)C(C)C)C(=O)N[C@H](C(=O)N[C@@H](Cc1ccc(O)cc1)C(=O)N[C@@H]1C(=O)N[C@@H](CC(N)=O)C(=O)N[C@@H](CCCNC(=N)N)C(=O)N[C@@H](CCN)C(=O)N[C@@H]([C@@H](C)O)C(=O)N[C@H](CCN)C(=O)N[C@@H](CCCCN)C(=O)N[C@H](C(=O)N[C@@H](CCN)C(=O)N[C@@H](CCCNC(=N)N)C(=O)N[C@@H](CC2CCCCC2)C(=O)O)CSSC1(C)C)[C@@H](C)CC [Example 22, Norn-Val-Norn-Ile-Ile-Tyr-Pen-Asn-Arg-Dab-Thr-^DDab-Lys-Cys-Dab-Arg-Cha] (H-[Gly(N(CH2)3NH2)]V[Gly(N(CH2)3NH2)]IIY[Pen]NR[Dab]T[dDab]KC[Dab]R[Cha]-OH; disulfide 7-14)	0%
0.0625 µg/mL	0.0625 µg/mL	0.125 µg/mL	CC[C@H](C)[C@H](NC(=O)[C@@H](NC(=O)[C@@H]1CCCN1C(=O)[C@@H](NC(=O)CNCCN)C(C)C)[C@@H](C)CC)C(=O)N[C@@H](Cc1ccc(O)cc1)C(=O)N[C@@H]1C(=O)N[C@@H](CC(N)=O)C(=O)N[C@@H](CCCNC(=N)N)C(=O)N[C@@H](CCN)C(=O)N[C@@H]([C@@H](C)O)C(=O)N[C@H](CCN)C(=O)N[C@@H](CCCCN)C(=O)N[C@H](C(=O)N[C@@H](CCN)C(=O)N[C@@H](CCCNC(=N)N)C(=O)N[C@@H](Cc2ccc(O)cc2)C(=O)O)CSSC1(C)C [Example 27, Ndab-Val-Pro-Ile-Ile-Tyr-Pen-Asn-Arg-Dab-Thr-^DDab-Lys-Cys-Dab-Arg-Tyr] (HELM PEPTIDE1{[NCCNCC(=O)[*:2]].V.P.I.I.Y.[Pen].N.R.[Dab].T.[NCC[C@@H](N[*:1])C(=O)[*:2]].K.C.[Dab].R.Y}$PEPTIDE1,PEPTIDE1,7:R3-14:R3$$$V2.0)	0%
0.125 µg/mL	0.25 µg/mL	0.125 µg/mL	CC[C@H](C)[C@H](NC(=O)CN(CCN)C(=O)[C@@H](NC(=O)[C@@H]1CCCN1)C(C)C)C(=O)N[C@H](C(=O)N[C@@H](Cc1ccc(O)cc1)C(=O)N[C@@H]1C(=O)N[C@@H](CC(N)=O)C(=O)N[C@@H](CCCNC(=N)N)C(=O)N[C@@H](CCN)C(=O)N[C@@H]([C@@H](C)O)C(=O)N[C@H](CCN)C(=O)N[C@@H](CCCCN)C(=O)N[C@H](C(=O)N[C@@H](CCN)C(=O)N[C@@H](CCCNC(=N)N)C(=O)N[C@@H](Cc2ccc(O)cc2)C(=O)O)CSSC1(C)C)[C@@H](C)CC [Example 28, Pro-Val-Ndab-Ile-Ile-Tyr-Pen-Asn-Arg-Dab-Thr-^DDab-Lys-Cys-Dab-Arg-Tyr] (HELM PEPTIDE1{P.V.[NCCN(CC(=O)[*:2])[*:1]].I.I.Y.[Pen].N.R.[Dab].T.[NCC[C@@H](N[*:1])C(=O)[*:2]].K.C.[Dab].R.Y}$PEPTIDE1,PEPTIDE1,7:R3-14:R3$$$V2.0)	0%
0.25 µg/mL	0.25 µg/mL	0.25 µg/mL	CC[C@H](C)[C@H](NC(=O)CN(CCN)C(=O)[C@@H](NC(=O)CNCCN)C(C)C)C(=O)N[C@H](C(=O)N[C@@H](Cc1ccc(O)cc1)C(=O)N[C@@H]1C(=O)N[C@@H](CC(N)=O)C(=O)N[C@@H](CCCNC(=N)N)C(=O)N[C@@H](CCN)C(=O)N[C@@H]([C@@H](C)O)C(=O)N[C@H](CCN)C(=O)N[C@@H](CCCCN)C(=O)N[C@H](C(=O)N[C@@H](CCN)C(=O)N[C@@H](CCCNC(=N)N)C(=O)N[C@@H](Cc2ccc(O)cc2)C(=O)O)CSSC1(C)C)[C@@H](C)CC [Example 29, Ndab-Val-Ndab-Ile-Ile-Tyr-Pen-Asn-Arg-Dab-Thr-^DDab-Lys-Cys-Dab-Arg-Tyr] (H-[Gly(N-2-aminoethyl)]V[Gly(N-2-aminoethyl)]IIY[Pen]NR[Dab]T[dDab]KC[Dab]RY-OH; disulfide 7-14)	0%

Reference: patent US20230295234A1, “ANTIMICROBIAL PEPTIDOMIMETICS” (SPEXIS AG, priority 2020, published 2023)
